Drawing on patent US20080019931A1, “Method and composition for producing enhanced fingernails” (PROSTRONG, INC, priority 2004, published 2008), this text covers solubility in water for one molecule.

The series is described as follows: Solubility in water. The format is physicochemical.

Molecules are shown by their SMILES.

On to `O=P([O-])([O-])P(=O)([O-])[O-].[Ca+2].[Ca+2]` [Calcium Hypophosphate], for which the solubility in water result was “soluble in water”.
